{
  "source": "patent EP0944595B1",
  "about": "“5-CYCLO INDOLE COMPOUNDS AS 5-HT1D RECEPTOR LIGANDS” (NPS Allelix Corp., priority 1996, dated 1998)",
  "tested_on": "protein extravasation",
  "assay": "Inhibition of protein extravasation, trigeminal stimulation assay",
  "format": "in vivo, Guinea pigs",
  "conditions": "guinea pig dura mater, [125I]-BSA extravasation after stimulation of the right trigeminal ganglion",
  "experimental": "Compounds of the inventions were evaluated for their ability to block neurogenic inflammation via inhibition of protein extravasation using the trigeminal stimulation assay as described in Markowitz, et al. J, Neurosci. 1987, 7:4129 and Lee, et al. Brain Res, 1993, 626:303. This is believed to indicate a compound's ability to act as an agonist at the 5-HT1Da and/or 5-HT1F receptors.\nGuinea pigs were anesthetized with pentobarbitone sodium (60 mg kg^-1, i.p.). Animals were placed in a stereotaxic frame (DKI 900, David Kopf Instruments, Tujunga, CA, U.S.A.). The right femoral vein was exposed and [^125I]-BSA ([…]) was injected as a bolus. With the incisor bar set at -1.5 mm from the horizontal line, the calvarium was exposed by a midline incision. Symmetrical burr holes (2 mm in diameter) were drilled at 3.7 mm posterior to the bregma and 3.2 mm lateral to the sagittal suture. Bipolar electrodes (50 mm shaft, Rhodes Medical Instruments, Woodland Hills, CA, U.S.A.) were lowered into the trigeminal ganglia to a depth of 9.5 mm from the dura mater overlying the dorsal surface of the brain. […] Radioactivity was determined on two sides with a gamma counter (Micromedic 4/600, Micromedic Systems, Inc., Huntsville, AL, U.S.A.) as previously described (Markowitz, et al., 1987 and Lee, et al., 1993).",
  "data": [
    {"smiles": "CNS(=O)(=O)Cc1ccc2[nH]cc(CCN(C)C)c2c1", "note": "[sumatriptan]", "values": [
      {"measurement": "ID50", "value": "3.3 to 7", "unit": "nM/kg"}
    ]}
  ]
}
